Experiments:
RmtA = RmtA (Emericella nidulans, UniProt Q5VLE3); test: Inhibition of Aspergillus nidulans recombinant GST-RmtA expressed in BL21 cells
[1] = target: Protein arginine N-methyltransferase 1 (Homo sapiens, UniProt Q99873); test: Inhibition of human recombinant GST-PRMT1 expressed in BL21 cells

Row | SMILES | IC50 (RmtA) [µM] | IC50 [1] [µM] | IC50 (RmtA; bl21) [µM]
1 | O=C(Nc1ccccc1)Nc1ccc2c(O)cc(S(=O)(=O)O)cc2c1 | 1080 | – | –
2 | Nc1ccc(C(=O)O)c(-c2c3ccc(=O)cc-3oc3cc(O)ccc23)c1 | 710 | – | –
3 | O=C1NC(=O)C(=Nn2c(=O)[nH]c(=O)[nH]c2=O)C(=O)N1 | > 164 | > 164 | –
4 | Nc1ccc2c(O)cc(S(=O)(=O)O)cc2c1 | 590 | – | –
5 | Nc1c(Br)cc(C(=O)O)c(-c2c3cc(Br)c(=O)c(Br)c-3oc3c(Br)c(O)c(Br)cc23)c1Br | 22.3 | 4.8 | –
6 | CN(C)c1ccc(/N=N/c2ccc(S(=O)(=O)O)cc2)cc1 | 490 | – | –
7 | O=C(O)c1ccc(Nc2nc(Cl)nc(Cl)n2)cc1 | 406 | – | –
8 | O=C(Nc1ccc2c(O)cc(S(=O)(=O)O)cc2c1)Nc1ccc2c(O)cc(S(=O)(=O)O)cc2c1 | 88 | – | –
9 | CC1=CC(=O)C(C(C)C)=C/C1=C(/c1cc(C(C)C)c(O)cc1C)c1ccccc1C(=O)O | > 217 | > 217 | –
10 | O=C1C=CC(=C(c2ccc(O)cc2)c2ccccc2S(=O)(=O)O)C=C1 | > 263 | – | –
11 | O=C(O)c1ccc(Nc2nc(Cl)nc(Cl)n2)cc1-c1c2ccc(=O)cc-2oc2cc(O)ccc12 | 73 | – | –
12 | O=C1C=CC(=C(c2ccc(O)cc2)c2ccccc2C(=O)O)C=C1 | 296 | 885 | –
13 | CC1=C(CN(CC(=O)O)CC(=O)O)C(=O)C(C(C)C)=C/C1=C(\c1ccccc1S(=O)(=O)O)c1cc(C(C)C)c(O)c(CN(CC(=O)O)CC(=O)O)c1C | > 34 | > 34 | –
14 | O=c1cc2oc3cc(O)c(O)cc3c(-c3ccccc3)c-2cc1O | 160 | – | –
15 | O=[N+]([O-])c1ccc2c(/N=N/c3cccc4ccccc34)c(O)cc(S(=O)(=O)O)c2c1 | 103 | – | –
16 | CN(C)c1ccc(/N=N/c2ccccc2C(=O)O)cc1 | 2100 | – | –
17 | O=C(O)c1ccccc1-c1c2cc(Br)c(=O)c(Br)c-2oc2c(Br)c(O)c(Br)cc12 | 0.18 | 1.4 | –
18 | O=S(=O)(O)c1cc(O)c2ccc(NC(=S)Nc3ccccc3)cc2c1 | 1360 | – | –
19 | Nc1cc(S(=O)(=O)O)cc2cc(S(=O)(=O)O)cc(O)c12 | 220 | – | –
20 | O=C1c2ccccc2C(=O)c2c1ccc(O)c2O [ATHRAQUINONES A] | 1220 | – | –
21 | COc1cc(/C=C/C(=O)CC(=O)/C=C/c2ccc(O)c(OC)c2)ccc1O [CURCUMIN] | 1100 | – | –
22 | O=C1OC2(c3ccc(O)cc3Oc3cc(O)ccc32)c2ccccc21 [FLUORESCEIN] | 123 | – | –
23 | Cc1cc(C(=C2C=CC(=N)C=C2)c2ccc(N)cc2)ccc1N [FUCHSIN, BASIC] | – | – | 515
24 | O=C1NS(=O)(=O)c2ccccc21 [SACCHARIN] | > 510 | > 510 | –
25 | Cc1ccc(C(=O)Nc2ccc(S(=O)(=O)O)c3cc(S(=O)(=O)O)cc(S(=O)(=O)O)c23)cc1NC(=O)c1cccc(NC(=O)Nc2cccc(C(=O)Nc3cc(C(=O)Nc4ccc(S(=O)(=O)O)c5cc(S(=O)(=O)O)cc(S(=O)(=O)O)c45)ccc3C)c2)c1 [SURAMIN] | 5.9 | 18.1 | –
